Ten compounds from paper PMC6010047, “Design, synthesis and biological evaluation of novel hydroxy-phenyl-1H-benzimidazoles as radical scavengers and UV-protective agents” (Journal of Enzyme Inhibition and Medicinal Chemistry, 2017) can be followed below.

Series [1] can be described thus: 1,1-Diphenyl-2-picryl-hydrazyl radical (DPPH) assay. The conditions noted are these: Trolox equivalents; mean ± SE of three experiments. It is filed as biochemical. How it is done:
To 1.5 mL DPPH methanolic solution (0.5 mM) was added 0.750 mL of sample solution proper diluted. Samples absorbance measurements were evaluated with a UV-VIS spectrophotometer (Thermo Spectronic Helios γ, Cambridge, UK) at fixed wavelength of 517 nm. Blank sample was prepared adding methanol to DPPH solution and Trolox was used as standard reference to achieve a calibration curve. The radical-scavenging activity is expressed as inhibition ratio of initial concentration of DPPH radical and is calculated according to the formula: Inhibition percentage (Ip) = [(AB-As)/AB]·100; where AB and As are, respectively, the absorbance values of blank reaction and of the tested sample[25].
(DPPH is a stable violet radical that fades when it is reduced.)

Series [2] can be described thus: Ferric reducing antioxidant of potency (FRAP) assay. It is filed as biochemical. As to conditions: Trolox equivalents; mean ± SE of three experiments. How it is done:
The ferric reducing ability of each standard solution was measured according to a modified protocol described by Guihua et al.[26]. The reagent for analysis was freshly prepared by mixing the following solutions in the reported ratio 10/1/1 (v:v:v) (i) 0.1 M acetate buffer pH 3.6, (ii) TPTZ (2,4,6-Tri(2-pyridyl)-s-triazine) 10 mmol/L in 40 mmol/HCl, (iii) ferric chloride 20 mmol/L. To a 1.9 mL of reagent were added 0.1 mL of sample proper diluted or solvent when blank was performed. Readings at fixed wavelength of the absorption maximum (593 nm) were done after 30 min, using a UV-VIS spectrophotometer; it was evaluated the absorbance increase of sample solution against the absorbance of blank reaction as parameter to calculate the antioxidant activity. The antioxidant activity is given as Trolox activity since this standard was used to perform the calibration curves.

Series [3] can be described thus: UV spectra: λmax and molar extinction coefficient. It is filed as physicochemical. As to conditions: for λ max: aqueous solution at pH 7; for ɛ (molar extinction coefficient): aqueous solution at pH 7, at λ max, linear regression Lambert–Beer. How it is done: Sun protection factor (SPF) is related to the UV absorption of the substances, so before including the molecules in cosmetic formulations we evaluated the wavelength of maximum absorption (λmax) and the molar extinction coefficient (ɛ) of each molecule in aqueous solution at pH 7. The UV spectra were recorded between 270 and 420 nm (20 nm higher and lower then UVA and UVB range) to verify the spectrum profile of the molecules within UVA and UVB region. UV spectrum of PBSA is an UVB filter and presents a λmax of 302 nm; after this peak, the absorbance fades going to higher wavelength until almost zero around 325 nm, and then, it provides no absorption in the UVA region. Molecules spectra overlapped for category according to the substituent in position 5 of the benzimidazole ring are shown in Figures 1, 2 and 3; PBSA spectrum is presented in all figures for comparison.
From the spectra appears that the lambda maxima (Table 2) of the new molecules shifted toward higher wavelength and in general the range of absorption curve was wider than PBSA. Within a group of molecules, the batochromic shift was more marked for the molecules that have a hydroxyl moiety in position 2 of the phenyl ring (4, 5, 6, 9, 10, 11, 13 and […]); the effect of ortho substituted is known to produce this shift toward higher wavelength. Increasing the number of auxochrome groups on phenyl ring an increment in the absorption range occurred, compounds with three hydroxyl on the phenyl ring (6, 11, 15) had the broadest spectrum and their lambda maxima shifted at the highest wavelength compared to the other compounds. The absorption spectrum of molecules with the same number and position of hydroxyl seemed only slightly influenced by the substituent in position 5 of the benzimidazole ring. After having established the lambda maxima for every compound, solutions at different concentrations were prepared to calculate the molar extinction coefficient by means of linear regression and applying Lambert–Beer equation (Table 2).

Series [4] is described as follows: In vitro evaluation of filtering parameters of formulations on PMMA plates (Diffey and Robson). As to conditions: 3% (w/w) in O/W formulation, PMMA plates. The text has this:
It was decided to use a standard formulation oil in water (O/W).
In vitro approaches consist in applying a thin film of sunscreen product on an artificial substrate and test, via spectrophotometric measures, the amount of UV radiation passing through the film. Several different artificial substrates are available for this type of analysis; the substrate should be as closed as possible to the physical characteristics of the skin. Among the substrates available for these purposes, the substrate used in this study to analyse the sunscreen products were PMMA plates. This substrate is easily handled and can be supplied with a reproducible roughness. WW5 PMMA plates have been purchased from Schonberg GmbH (Munich, Germany). The plates, used in this study, have an area of 25 cm^2 and standardized […] roughness. Transmittance and absorbance measurements were carried out by a SHIMAZDU UV-2600 provided of integrating sphere ISR 2600 60 mm and coupled with a SPF determination software and a PMMA plate with approximately 15 μL of glycerin served as reference.
In order to evaluate possible activity as sun filters and antioxidants, suitable in the development of novel class of dualistic sunscreens, the synthesized molecules were included at the concentration of 3% (w/w) in a topical formulation. To this end standard oil in water (O/W) formulation was devised, taking into account the absence of any UV filtering and/or antioxidant molecule, in order to obtain a reference formulation. It was not possible to analyze compound 7 in the formulation because of high instability (phase separation induced by 7). Formulations containing the active ingredients were tested for their SPF efficacy by the in vitro method derived from Diffey and Robson[32], in comparison with the same formulation containing the reference PBSA.
This method is based on the measure of spectral transmission of ultraviolet radiation, with and without the sunscreen applied, through an irregular substrate that simulates the skin surface and permits transmission of UV radiation. Although with some limitation, the test is used to predict SPF in vivo and to screen the filtering activity of new molecules that cannot be tested by in vivo because of lacking of more data concerning safety. The critical wavelength (λc) for the test product is defined as that wavelength where the area under the absorbance spectrum for the irradiated product from 290 nm to λc is 90% of the integral of the absorbance spectrum from 290 nm to 400 nm. Critical wavelength value of greater than 370 nm is necessary, in order to satisfy requirements for broad-spectrum UVB/UVA protection and associated labeling. Polymethylmethacrylate plates (PMMA) with a specific roughness were a satisfactory substrate for this method, because they are UV-transparent, nonfluorescent, photostable and inert to all potential sunscreen formulation ingredients. Table 3 lists the data obtained for the model formulation containing the synthesized compounds. These parameters are necessary to evaluate whether a sunscreen fulfills the requirements for efficacy, and they are SPF, UVA protection factor (UVAPF), UVA/UVB ratio and critical wavelength.
A set of model formulations was prepared: an oil-in-water emulsion (O/W), without sunscreen molecules (Ref. A, Figure 5), prepared as reference formulation; two formulations containing PBSA or oxisol (12) at 3% were prepared (Ref. C and B, respectively, Figure 5), in order to evaluate the filter properties of oxisol (12). Moreover, as stated earlier, SPF booster properties were assayed on other four formulations including a mix of filters with a theoretical SPF value of 15 and 30, adding 3% of oxisol (12) or PBSA (Ref. E, F, G, H, Figure 5). […]

Entries after “also recorded” stand apart in the source; their conditions may differ.

For the compound “2-(2,4-Dihydroxy-phenyl)-1H-benzimidazole [Compound 9]”, in series [1], the DPPH is on record as 16.47 ± 0.54 μmolTrolox/mmol. Moreover, the FRAP in series [2] is given as 37.3 ± 0.35 μmolTrolox/mmol. Besides, in series [3], the λ max was 315 nm and the “ɛ (molar extinction coefficient)” value is reported as 14 000. Besides, in series [4], the SPF is reported as 3.57 ± 0.23, the UVA/UVB turned out to be 1.10 ± 0.05, the UVAPF was determined as 1.89 ± 0.05 and the “λc (critical wavelength)” value was 380 nm.
“2-(2-Hydroxy-phenyl)-1H-benzimidazole [Compound 10]”: the DPPH in series [1] turned out to be 0.87 ± 0.05 μmolTrolox/mmol. Further, the FRAP in series [2] turned out to be 23.04 ± 0.09 μmolTrolox/mmol. Further, in series [3], the λ max came to 315 nm and the “ɛ (molar extinction coefficient)” value is listed as 17 000. In series [4], the SPF was determined as 1.96 ± 0.14, the UVA/UVB turned out to be 1.01 ± 0.02, the UVAPF stood at 1.06 ± 0.08 and the “λc (critical wavelength)” value turned out to be 378 nm.
For the compound `O=S(=O)(O)c1ccc2[nH]c(-c3ccc(O)cc3)nc2c1` [Compound 2, 2-(4-Hydroxy-phenyl)-1H-benzimidazole-5-sulfonic acid], the DPPH in series [1] amounted to 2.04 ± 0.15 μmolTrolox/mmol. Further, the FRAP in series [2] amounted to 12.23 ± 0.25 μmolTrolox/mmol. Further, in series [3], the λ max was found to be 308 nm and the “ɛ (molar extinction coefficient)” value is 25 000. Moreover, in series [4], the SPF is listed as 4.74 ± 0.15, the UVA/UVB came out at 0.51 ± 0.01, the UVAPF was determined as 1.36 ± 0.07 and the “λc (critical wavelength)” value was 346 nm.
Take `O=S(=O)(O)c1ccc2[nH]c(-c3ccc(O)c(O)c3)nc2c1` [Compound 3, 2-(3,4-Dihydroxy-phenyl)-1H-benzimidazole-5-sulfonic acid]: the DPPH in series [1] came out at 2145.31 ± 45.8 μmolTrolox/mmol. For the same compound, in series [2], the FRAP is listed as 2707.29 ± 29.52 μmolTrolox/mmol. Also, in series [3], the λ max is reported as 313 nm and the “ɛ (molar extinction coefficient)” value is given as 23 000. Besides, in series [4], the SPF was determined as 9.83 ± 0.64, the UVA/UVB worked out at 0.74 ± 0.04, the UVAPF was 3.63 ± 0.23 and the “λc (critical wavelength)” value is 358 nm.
In the case of `O=S(=O)(O)c1ccc2[nH]c(-c3ccccc3O)nc2c1` [Compound 4, 2-(2-Hydroxy-phenyl)-1H-benzimidazole-5-sulfonic acid], in series [1], the DPPH amounted to 2.03 ± 0.09 μmolTrolox/mmol. Further, the FRAP in series [2] was determined as 16.22 ± 0.89 μmolTrolox/mmol. In addition, in series [3], the λ max turned out to be 315 nm and the “ɛ (molar extinction coefficient)” value is 21 000. Further, in series [4], the SPF turned out to be 2.22 ± 0.13, the UVA/UVB is recorded as 0.96 ± 0.01, the UVAPF is 1.06 ± 0.07 and the “λc (critical wavelength)” value is 355 nm.
Take `O=S(=O)(O)c1ccc2[nH]c(-c3ccc(O)cc3O)nc2c1` [Compound 5, 2-(2,4-Dihydroxy-phenyl)-1H-benzimidazole-5-sulfonic acid]: the DPPH in series [1] worked out at 21.41 ± 043 μmolTrolox/mmol. For the same compound, the FRAP in series [2] was 19.87 ± 0.22 μmolTrolox/mmol. In series [3], the λ max amounted to 318 nm and the “ɛ (molar extinction coefficient)” value is listed as 23 000. In series [4], the SPF is given as 2.18 ± 0.14, the UVA/UVB was determined as 1.13 ± 0.01, the UVAPF is reported as 1.21 ± 0.04 and the “λc (critical wavelength)” value stood at 370 nm.
Take `O=S(=O)(O)c1ccc2[nH]c(-c3ccc(O)c(O)c3O)nc2c1` [Compound 6, 2-(2,3,4-Trihydroxy-phenyl)-1H-benzimidazole-5-sulfonic acid]: the DPPH in series [1] is 1362.12 ± 133.96 μmolTrolox/mmol. Besides, the FRAP in series [2] was 2713.3 ± 45.17 μmolTrolox/mmol. In series [3], this compound returned a λ max of 328 nm and a ɛ (molar extinction coefficient) of 22200 L/mol/cm. Also, in series [4], the SPF turned out to be 5.99 ± 0.12, the UVA/UVB was found to be 0.89 ± 0.03, the UVAPF was 2.72 ± 0.08 and the “λc (critical wavelength)” value came out at 383 nm.
In the case of `Oc1ccc(-c2nc3ccccc3[nH]2)cc1O` [Compound 8, 2-(3,4-Dihydroxy-phenyl)-1H-benzimidazole], the DPPH in series [1] stood at 1974.58 ± 16.89 μmolTrolox/mmol. Also, the FRAP in series [2] stood at 2663.21 ± 32.53 μmolTrolox/mmol. Further, in series [3], the λ max stood at 311 nm and the “ɛ (molar extinction coefficient)” value is reported as 16 000. Moreover, in series [4], the SPF is 5.20 ± 0.20, the UVA/UVB is given as 0.78 ± 0.02, the UVAPF is 1.90 ± 0.09 and the “λc (critical wavelength)” value is given as 368 nm.
For `Oc1ccc(-c2nc3ccccc3[nH]2)c(O)c1O` [Compound 11, 2-(2,3,4-Trihydroxy-phenyl)-1H-benzimidazole], the DPPH in series [1] worked out at 1811.02 ± 61.7 μmolTrolox/mmol. The FRAP in series [2] came to 2723.19 ± 35.74 μmolTrolox/mmol. In addition, in series [3], the λ max amounted to 325 nm and the “ɛ (molar extinction coefficient)” value is given as 12 000. In series [4], the SPF came to 2.85 ± 0.22, the UVA/UVB amounted to 0.90 ± 0.01, the UVAPF came to 1.35 ± 0.1 and the “λc (critical wavelength)” value was 381 nm.
Turning to `O=S(=O)(O)c1ccc2[nH]c(-c3ccccc3)nc2c1` [PBSA, 2-phenyl-1H-benzimidazole-5-sulfonic acid, reference compound], in series [1], the DPPH entry is on record as “devoided of any activity; also recorded: < LOQ^a”. Also, in series [3], the λ max amounted to 302 nm and the “ɛ (molar extinction coefficient)” value is given as 25 000. In series [4], the SPF is 4.56 ± 1.09, the UVA/UVB is 0.26 ± 0.05, the UVAPF was found to be 1.04 ± 0.06 and the “λc (critical wavelength)” value worked out at 333 nm.
